Reference: paper PMC4977052, “On the Utility of ToxCast™ and ToxPi as Methods for Identifying New Obesogens” (Environmental Health Perspectives, 2016)
“And” between values parts separate entries of the source, which are not always exact repeats. Equal values may be shown once. Read-outs that look alike come from different tables or passages of the source.

Tests used:
3T3-L1 preadipocytes = test: 3T3-L1 adipogenesis assay (lipid accumulation, adipogenic gene expression); assay type: cell-based; settings: 0.02-20 μM, 5 days after MDI induction
Description: 3T3-L1 cells (ATCC) were maintained in high-glucose DMEM supplemented with 10% fetal bovine serum, 2 mM L-glutamine, 50 IU/mL penicillin, and 50 μg/mL streptomycin. A total of 2 × 10^4 cells per well were seeded in 12-well plates. After 48 hr, cells were exposed to the adipogenic cocktail MDI (500 μM isobutylmethylxanthine, 0.25 nM dexamethasone and 5 μg/mL insulin), 8 μg/mL biotin and 8 μg/mL pantothenate for 2 days. Induction media was removed and cells were exposed to test chemicals during 5 days, replacing the media every 2 days. Rosiglitazone (ROSI) and tributyltin (TBT) were used as positive controls at 100 nM and 50 nM final concentrations, respectively. All ToxCast™ chemicals were tested at 0.02, 0.2, 2, and 20 μM, and DMSO concentration was maintained at 0.1% across all treatments. If the chemical was toxic at 20 μM, we repeated the experiment at 10 μM.
Cells were either fixed in 3.7% formaldehyde in phosphate-buffered saline (PBS) for 30 min at room temperature (RT) for lipid quantitation, or homogenized in TriPure (Roche, Mannheim, Germany) for gene expression analysis. For lipid quantitation, fixed cells were washed twice with PBS and maintained in PBS overnight at 4°C to release residual phenol red. Background of cells were measured prior to staining. Cells were stained with 1 μg/mL Nile red (CAS No. 7385-67-3) (to detect lipid accumulation) and 1 μg/mL Hoechst 33342 (ThermoFisher Scientific) (to detect nuclei as a surrogate for cell number) in PBS for 15 min in the dark at RT and washed twice with PBS. […] Background values of Hoechst and Nile red were subtracted from the RFUs after staining and the ratio RFUNile Red:RFUHoechst was calculated. Data are represented as mean ± SEM. Total RNA was isolated using TriPure (Roche) as recommended by the manufacturer. Reverse transcription and quantitative real-time RT-PCR (QPCR) were performed using Transcriptor RT and SYBR® Green Master Mix (Roche). cDNA was quantitated in a LightCycler® 480 System (Roche Diagnostics, Basel, Switzerland) using primer sets listed in Table S4. Each primer set amplified a single band as determined by gel electrophoresis and melting curve analysis. QPCR data were analyzed using the 2^ΔΔCt method ([Livak and Schmittgen 2001]) relative to ribosomal protein 36b4, normalizing to 0.1% DMSO vehicle. Error bars represent the SEM from four to six biological replicates calculated using standard propagation of error ([Bevington and Robinson 2003]).

GAL4-mPPARγ = biological target: T1, GAL4-mPPARγ (Mus musculus, UniProt P37238); test: GAL4-mPPARγ activation, transient transfection luciferase reporter in COS7 cells; assay type: cell-based
T1 construct: expressed in transfected cells; host or cells: COS7
T1 sequence (P37238 with tags, fused parts or gaps limits assumed): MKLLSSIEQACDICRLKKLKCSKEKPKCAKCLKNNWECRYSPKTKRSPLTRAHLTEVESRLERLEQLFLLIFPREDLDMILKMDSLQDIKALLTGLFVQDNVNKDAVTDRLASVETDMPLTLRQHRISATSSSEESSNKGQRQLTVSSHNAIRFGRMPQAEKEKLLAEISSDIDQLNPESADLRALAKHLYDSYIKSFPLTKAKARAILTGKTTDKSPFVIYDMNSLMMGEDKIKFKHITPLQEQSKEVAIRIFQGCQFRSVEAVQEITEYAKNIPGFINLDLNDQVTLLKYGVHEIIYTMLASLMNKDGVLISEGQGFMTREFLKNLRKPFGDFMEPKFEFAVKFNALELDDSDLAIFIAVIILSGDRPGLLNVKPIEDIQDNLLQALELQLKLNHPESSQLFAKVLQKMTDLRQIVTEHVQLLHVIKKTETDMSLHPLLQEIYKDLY
Description: pCMX-Gal4, pCMX-Gal4-mPPARγ, and pCMX-Gal4-hRXRα were previously described ([Grün et al. 2006]). Transient transfections were performed in COS7 cells as described ([Chamorro-García et al. 2012]). Briefly, COS7 cells were seeded at 15,000 cells per well in 96-well tissue culture plates in 10% calf bovine serum. The following day, cells were transfected in Opti-MEM at ~ 90% confluency. One microgram of CMX-GAL4 effector plasmid was co-transfected with 5 μg tk-(MH100)4-luciferase reporter and 5 μg of CMX-β-galactosidase transfection control plasmids in Opti-MEM® using Lipofectamine® 2000 reagent (Invitrogen™ Life Technologies, Carlsbad, CA, USA), following the manufacturer’s recommended protocol. All chemicals were solvated in dimethyl sulfoxide (DMSO). After overnight incubation, the medium was replaced with Dulbecco’s Modified Eagle Medium (DMEM; HyClone, Logan, UT, USA), 10% resin charcoal stripped fetal bovine serum (FBS) plus ligands at concentrations indicated in the figure legends for an additional 24 hr. DMSO concentration was maintained at 0.05% across all chemical treatments. Cells were lysed and assayed for luciferase and β-galactosidase activity as previously described ([Forman et al. 1995]). All transfections were performed in triplicate and reproduced in multiple experiments. Data are reported as fold induction or reduction over vehicle ([…]) controls ± SEM (standard error of the mean) using standard propagation of error ([Bevington and Robinson 2003]). […] The EC50, EC10, IC50, and IC10 values from NCGC and ToxCast™ are reported from gain AC50 and AC10 values in the ToxCast™ 2014 release ([Filer et al. 2014]).
Figure 1 ToxCast™ Chemical Activity on PPARγ. The ability of a graded dose series of ToxCast™ chemicals to (A) activate or (B) antagonize GAL4-mPPARγ was tested in transiently transfected COS7 cells. (A, B) Data points are averages of triplicate transfections (three biological replicates). […] Data are depicted as (A) fold induction or (B) reduction over vehicle (0.05% DMSO) controls ± SEM. (A) ToxCast™ chemicals were tested in 3-fold serial dilutions from 100 μM through 0.137 μM, with the final data point being 0.05% DMSO. Rosiglitazone serves as a positive control activator. (B) ToxCast™ chemicals were tested in 3-fold serial dilutions from 100 μM, in competition with 50 nM rosiglitazone (Rosi). […] (C) EC50, EC10, IC50, and IC10 values calculated from A and B are reported and compared to commercial assays (see Figure S1). Note: ATG, Attagene GAL-PPARγ activation assay; NCGC, GeneBLAzer® agonist (EC values) or antagonist (IC values) assays. Triphenyltin was previously published ([Kanayama et al. 2005]).
Figure 4 ToxPi Chemical Activity on PPARγ and RXRα. The ability of a graded dose series of ToxPi chemicals to activate (A) GAL4-mPPARγ or (B) GAL4-hRXRα was tested in transiently transfected COS7 cells. (A, B) Data points are averages of triplicate transfections (three biological replicates). […] ToxPi chemicals were tested in 3-fold serial dilutions from 100 μM through 0.137 μM, with the final data point being 0.05% DMSO. Data are depicted as fold induction over vehicle (0.05% DMSO) controls ± SEM. (A) Rosiglitazone serves as a positive control activator for GAL4-mPPARγ. (B) LG100268 (2-[1-(3,5,5,8,8-Pentamethyl-5,6,7,8-tetrahydro-2-naphthyl)cyclopropyl]pyridine-5-carboxylic acid) serves as a positive control activator for GAL4-hRXRα. (C) EC50 and EC10 values calculated from A and B are reported and compared to other assays (see Figure S1). ATG, Attagene GAL-PPARγ or GAL-RXRα activation assay; NCGC, GeneBLAzer® GAL-PPARγ or GAL-RXRα activation assays. Triphenyltin was previously published ([Kanayama et al. 2005]).

PPARγ [1] = settings: cited from earlier work
PPARγ [2] = test system: PPARγ; design: method as in Filer et al. 2014; settings: PPARγ; NA = not active; ref Filer et al. 2014; read-out: NCGC Antag. AC50, 2014 Release; cited from earlier work
Human PPARγ = settings: cited from earlier work
PPARγ [3] = settings: ref Filer et al. 2014, cited from earlier work
[4] = Cos-7 transient transfection, PPARγ or RXRα activation assays (Table 2)
[5] = PPARγ, NA = not active, ref Filer et al. 2014, read-out: ATG Agonist AC50, 2014 Release
[6] = PPARγ, NA = not active, ref Knudsen et al. 2011, read-out: ATG Agonist AC50, 2011 Release
[7] = PPARγ direct binding, NA = not active, ref Filer et al. 2014, read-out: NVS Agonist AC50, 2014 Release
[8] = PPARγ, NA = not active, read-out: NCGC Agonist AC50, 2014 Release
[9] = ToxCast 2014 release, ref Filer et al. 2014, read-out: Attagene AC50 (panel A, w/o Z-Score Correction ranking)
[10] = Cos-7 transient transfection, PPARγ activation or antagonism assays (Table 1, Table S6)

| SMILES | Adipogenesis 3T3-L1 (result in words) (3T3-L1 preadipocytes) | Activation COS7 (result in words), ToxPi chemicals (GAL4-mPPARγ; [4]) | AC50 (PPARγ [1]; [5]) | AC50 (PPARγ [1]; [6]) [µM] | AC50 (PPARγ [2]) [µM] | Activation COS7 (result in words), ToxCast PPARγ list (GAL4-mPPARγ) | other results |
| --- | --- | --- | --- | --- | --- | --- | --- |
| C/C(=N\C#N)N(C)Cc1ccc(Cl)nc1 [Acetamiprid] | Positive | – | – | – | – | – | Adipogenesis 3T3-L1 (result in words) (3T3-L1 preadipocytes; listed as acetamiprid): promoted adipogenesis; Activation COS7 (result in words), ToxPi chemicals (GAL4-mPPARγ): Inactive |
| COC(=O)NS(=O)(=O)c1ccc(N)cc1 [Asulam] | Negative | Inactive | – | – | – | – | – |
| CCCCOCN(C(=O)CCl)c1c(CC)cccc1CC [Butachlor] | – | – | 2 µM | 2.1 | 26.4 | – | – |
| COCC(C)N(C(=O)CCl)c1c(C)csc1C (stereo not shown) [Dimethenamid] | – | – | 4.6 µM | 5.6 | 21.4 | Inactive | – |
| COc1ccc(C(=CC(=O)N2CCOCC2)c2ccc(Cl)cc2)cc1OC [Dimethomorph] | – | – | 9.4 µM and 10.1 µM | 11 | 32.3 | Inactive | AC50 (Human PPARγ; [7]): 9.6 µM |
| Cc1ccn2nc(S(=O)(=O)Nc3c(F)cccc3F)nc2n1 [Flumetsulam] | Negative | Inactive | – | – | – | – | – |
| COC(=O)N(C(=O)N1CO[C@@]2(C(=O)OC)Cc3cc(Cl)ccc3C2=N1)c1ccc(OC(F)(F)F)cc1 [Indoxacarb] | – | – | 6.1 µM | 8.5 | 10.7 | Inactive | AC50 (PPARγ [3]; [8]): 44.1 µM |
| O=c1ccc(=O)[nH][nH]1 [Maleic hydrazide] | Negative | Inactive | – | – | – | – | – |
| N#CSCSC#N [Methylene dithiocyanate] | Negative | Inactive | – | – | – | – | – |
| CNC(=O)/C=C(\C)OP(=O)(OC)OC [Monocrotophos] | Negative | Inactive | – | – | – | – | AC50 (PPARγ [3]; ToxCast 2014 release, read-out: Tox21/NCGC AC50 (panel A)): 67.5 µM; AC50 (Human PPARγ; direct binding, ToxCast 2014 release, ref Filer et al. 2014, read-out: NovaScreen AC50 (panel A)): 20.8 µM; AC50 (PPARγ [1]; [9]): 2.2 µM |
| O=C(Nc1ccc([N+](=O)[O-])cc1Cl)c1cc(Cl)ccc1O [Niclosamide] | – | – | 0.56 µM | 0.56 | 35.9 | – | AC50 (PPARγ [3]; [8]): 29.9 µM; Activation COS7 (result in words), ToxCast PPARγ list (GAL4-mPPARγ; [10]): Inactive; AC50 (PPARγ [1]; [9]): 0.6 µM |
| O=S(=O)(O)C(F)(F)C(F)(F)C(F)(F)C(F)(F)C(F)(F)C(F)(F)C(F)(F)C(F)(F)F [PFOS, perfluorooctanesulfonic acid] | Negative | Inactive | – | – | – | – | AC50 (Human PPARγ; direct binding, ToxCast Phase I 2011 release, NA = not active, ref Knudsen et al. 2011, read-out: NVS PPARγ AC50): 16 µM; AC50 (PPARγ [1]; ToxCast Phase I 2011 release, NA = not active, ref Knudsen et al. 2011, read-out: ATGT PPARγ AC50): 26 µM |
| CCCN(CCOc1c(Cl)cc(Cl)cc1Cl)C(=O)n1ccnc1 [Prochloraz] | – | – | – | 3.5 | 81.5 | – | Activation COS7 (result in words), ToxCast PPARγ list (GAL4-mPPARγ; [10]): Inactive; AC50 (Human PPARγ; [7]): 27.5 µM |
| CC1=NNC(=O)N(/N=C/c2cccnc2)C1 [Pymetrozine] | Positive | Inactive | – | – | – | – | Adipogenesis 3T3-L1 (result in words) (3T3-L1 preadipocytes; listed as pymetrozine): promoted adipogenesis |
| COC(=O)N(OC)c1ccccc1COc1ccn(-c2ccc(Cl)cc2)n1 [Pyraclostrobin] | – | – | 0.61 µM | 0.76 | 0.7 | Inactive | – |
| CCc1ccc(C(=O)NN(C(=O)c2cc(C)cc(C)c2)C(C)(C)C)cc1 [Tebufenozide] | – | – | 7.6 µM | 6.3 | 50.8 | Inactive | – |
